From ChEMBL document CHEMBL4373736, “Synthesis and biological evaluation of panaxatriol derivatives against myocardial ischemia/reperfusion injury in the rat” (Eur J Med Chem, 2020)

What was measured:
Cardiac muscle cell [1] = assay: Cytotoxicity against Sprague-Dawley rat cardiomyocytes assessed as inhibition of cell growth at 10 uM treated for 50 hrs by MTT assay; assay type: cell-based
Cardiac muscle cell [2] = assay: Cytoprotective activity against OGD/reperfusion induced injury in Sprague-Dawley rat cardiomyocytes assessed as effect on cell viability at 0.1 uM pretreated for 24 hrs followed by OGD for 2 hrs and subsequent reperfusion for 24 hrs (reference value: 43.9 to 45.4 +/- 1.1 %); assay type: functional
Cardiac muscle cell [3] = assay: Cytoprotective activity against OGD/reperfusion induced injury in Sprague-Dawley rat cardiomyocytes assessed as effect on cell viability at 1 uM pretreated for 24 hrs followed by OGD for 2 hrs and subsequent reperfusion for 24 hrs (reference value: 43.9 to 45.4 +/- 1.1 %); assay type: functional
Cardiac muscle cell [4] = assay: Cytoprotective activity against OGD/reperfusion induced injury in Sprague-Dawley rat cardiomyocytes assessed as effect on cell viability at 10 uM pretreated for 24 hrs followed by OGD for 2 hrs and subsequent reperfusion for 24 hrs (reference value: 43.9 to 45.4 +/- 1.1 %); assay type: functional

Row | Compound | Activity (Cardiac muscle cell [1]) | Activity (Cardiac muscle cell [2]) [%] | Activity (Cardiac muscle cell [3]) [%] | Activity (Cardiac muscle cell [4]) [%]
1 | CC1(C)CCC[C@](C)([C@H]2CC[C@]3(C)[C@@H]2[C@H](O)C[C@@H]2[C@@]4(C)Cc5cnn(-c6ccccc6)c5C(C)(C)[C@@H]4[C@H](O)C[C@]23C)O1 | Non-Toxic | 50.8 | 57.3 | 62.5
2 | CC1(C)CCC[C@](C)([C@H]2CC[C@]3(C)[C@@H]2[C@H](O)C[C@@H]2[C@@]4(C)Cc5c(n[nH]c5CO)C(C)(C)[C@@H]4[C@H](O)C[C@]23C)O1 | Non-Toxic | 55 | 64.6 | 75.7
3 | CC1(C)CCC[C@](C)([C@H]2CC[C@]3(C)[C@@H]2[C@H](O)C[C@@H]2[C@@]4(C)Cc5sc(N)nc5C(C)(C)[C@@H]4[C@@H](O)C[C@]23C)O1 | Non-Toxic | 52.4 | 57.6 | 62.4
4 | CC1(C)CCC[C@](C)([C@H]2CC[C@]3(C)[C@@H]2[C@H](O)C[C@@H]2[C@@]4(C)Cc5c([nH]c6c(Cl)cc(F)cc56)C(C)(C)[C@@H]4C(=O)C[C@]23C)O1 | Non-Toxic | 52.9 | 57.1 | 62.1
5 | Cc1nc2c(s1)C[C@]1(C)[C@H]3C[C@@H](O)[C@@H]4[C@@H]([C@@]5(C)CCCC(C)(C)O5)CC[C@@]4(C)[C@]3(C)CC(=O)[C@H]1C2(C)C | Non-Toxic | 48.7 | 52.1 | 58.5
6 | CC1(C)CCC[C@](C)([C@H]2CC[C@]3(C)[C@@H]2[C@H](O)C[C@@H]2[C@@]4(C)Cc5sc(-c6cccnc6)nc5C(C)(C)[C@@H]4C(=O)C[C@]23C)O1 | Non-Toxic | 46.9 | 51.3 | 57.2
7 | CCOC(=O)c1nn(-c2ccccc2)c2c1C[C@]1(C)[C@H]3C[C@@H](O)[C@@H]4[C@@H]([C@@]5(C)CCCC(C)(C)O5)CC[C@@]4(C)[C@]3(C)C[C@@H](O)[C@H]1C2(C)C | Non-Toxic | 51.4 | 56.8 | 63.6
8 | CC1(C)CCC[C@](C)([C@H]2CC[C@]3(C)[C@@H]2[C@H](O)C[C@@H]2[C@@]4(C)Cc5c([nH]c6ccc(Cl)cc56)C(C)(C)[C@@H]4C(=O)C[C@]23C)O1 | Non-Toxic | 51.7 | 57.3 | 62.7
9 | CC1(C)CCC[C@](C)([C@H]2CC[C@]3(C)[C@@H]2[C@H](O)C[C@@H]2[C@@]4(C)Cc5cnoc5C(C)(C)[C@@H]4[C@H](O)C[C@]23C)O1 | Non-Toxic | 60.6 | 67.2 | 76.9
10 | CNc1nc2c(s1)C[C@]1(C)[C@H]3C[C@@H](O)[C@@H]4[C@@H]([C@@]5(C)CCCC(C)(C)O5)CC[C@@]4(C)[C@]3(C)CC(=O)[C@H]1C2(C)C | Non-Toxic | 47 | 52.7 | 58.8
11 | COc1ccc2[nH]c3c(c2c1)C[C@]1(C)[C@H]2C[C@@H](O)[C@@H]4[C@@H]([C@@]5(C)CCCC(C)(C)O5)CC[C@@]4(C)[C@]2(C)CC(=O)[C@H]1C3(C)C | Non-Toxic | 70.1 | 79.6 | 88
12 | CC1(C)CCC[C@](C)([C@H]2CC[C@]3(C)[C@@H]2[C@H](O)C[C@@H]2[C@@]4(C)Cc5sc(-c6ccc(Cl)cc6)nc5C(C)(C)[C@@H]4C(=O)C[C@]23C)O1 | Non-Toxic | 49.5 | 54.8 | 60.3
13 | CCOC(=O)c1noc2c1C[C@]1(C)[C@H]3C[C@@H](O)[C@@H]4[C@@H]([C@@]5(C)CCCC(C)(C)O5)CC[C@@]4(C)[C@]3(C)C[C@@H](O)[C@H]1C2(C)C | Non-Toxic | 57.5 | 67.9 | 74.7
14 | CC1(C)CCC[C@](C)([C@H]2CC[C@]3(C)[C@@H]2[C@H](O)C[C@@H]2[C@@]4(C)Cc5sc(NC(=N)N)nc5C(C)(C)[C@@H]4C(=O)C[C@]23C)O1 | Non-Toxic | 48.9 | 52.5 | 57.2
15 | CCOC(=O)c1[nH]nc2c1C[C@]1(C)[C@H]3C[C@@H](O)[C@@H]4[C@@H]([C@@]5(C)CCCC(C)(C)O5)CC[C@@]4(C)[C@]3(C)C[C@@H](O)[C@H]1C2(C)C | Non-Toxic | 48 | 54.1 | 60.4
16 | CC1(C)CCC[C@](C)([C@H]2CC[C@]3(C)[C@@H]2[C@H](O)C[C@@H]2[C@@]4(C)Cc5sc(Nc6ccccc6)nc5C(C)(C)[C@@H]4C(=O)C[C@]23C)O1 | Non-Toxic | 49.7 | 56 | 63
17 | CC1(C)CCC[C@](C)([C@H]2CC[C@]3(C)[C@@H]2[C@H](O)C[C@@H]2[C@@]4(C)Cc5c[nH]nc5C(C)(C)[C@@H]4[C@H](O)C[C@]23C)O1 | Non-Toxic | 48.6 | 55.9 | 61.7
18 | CC1(C)CCC[C@](C)([C@H]2CC[C@]3(C)[C@@H]2[C@H](O)C[C@@H]2[C@@]4(C)Cc5c(CO)nn(-c6ccccc6)c5C(C)(C)[C@@H]4[C@H](O)C[C@]23C)O1 | Non-Toxic | 51.6 | 56.6 | 61.2
19 | CC1(C)CCC[C@](C)([C@H]2CC[C@]3(C)[C@@H]2[C@H](O)C[C@@H]2[C@@]4(C)Cc5c([nH]c6c(F)cccc56)C(C)(C)[C@@H]4C(=O)C[C@]23C)O1 | Non-Toxic | 53.5 | 58 | 62.6
20 | CC1(C)CCC[C@](C)([C@H]2CC[C@]3(C)[C@@H]2[C@H](O)C[C@@H]2[C@@]4(C)Cc5sc(CC#N)nc5C(C)(C)[C@@H]4C(=O)C[C@]23C)O1 | Non-Toxic | 58.6 | 64.6 | 70.1
21 | CC1(C)CCC[C@](C)([C@H]2CC[C@]3(C)[C@@H]2[C@H](O)C[C@@H]2[C@@]4(C)Cc5c([nH]c6ccc(F)cc56)C(C)(C)[C@@H]4C(=O)C[C@]23C)O1 | Non-Toxic | 54.6 | 58.8 | 63.6
22 | CC1(C)CCC[C@](C)([C@H]2CC[C@]3(C)[C@@H]2[C@H](O)C[C@@H]2[C@@]4(C)Cc5c(CO)noc5C(C)(C)[C@@H]4[C@H](O)C[C@]23C)O1 | Non-Toxic | 55.1 | 60.9 | 66.8
23 | CC1(C)CCC[C@](C)([C@H]2CC[C@]3(C)[C@@H]2[C@H](O)C[C@@H]2[C@@]4(C)Cc5c([nH]c6ccc(S(N)(=O)=O)cc56)C(C)(C)[C@@H]4C(=O)C[C@]23C)O1 | Non-Toxic | 55.1 | 61.5 | 66.3
24 | CCOC(=O)c1nc2c(s1)C[C@]1(C)[C@H]3C[C@@H](O)[C@@H]4[C@@H]([C@@]5(C)CCCC(C)(C)O5)CC[C@@]4(C)[C@]3(C)CC(=O)[C@H]1C2(C)C | Non-Toxic | 59.1 | 75.3 | 86.6
25 | CC1(C)CCC[C@](C)([C@H]2CC[C@]3(C)[C@@H]2[C@H](O)C[C@@H]2[C@@]4(C)Cc5sc(N)nc5C(C)(C)[C@@H]4C(=O)C[C@]23C)O1 | Non-Toxic | 60.2 | 70.2 | 77.7
26 | CC1(C)CCC[C@](C)([C@H]2CC[C@]3(C)[C@@H]2[C@H](O)C[C@@H]2[C@@]4(C)Cc5c(n[nH]c5C(F)(F)F)C(C)(C)[C@@H]4[C@H](O)C[C@]23C)O1 | Non-Toxic | 60.2 | 67.6 | 76.4
27 | CC1(C)CCC[C@](C)([C@H]2CC[C@]3(C)[C@@H]2[C@H](O)C[C@@H]2[C@@]4(C)Cc5cnn(-c6ccc(F)cc6)c5C(C)(C)[C@@H]4[C@H](O)C[C@]23C)O1 | Non-Toxic | 56.5 | 65.3 | 73.2
28 | CC1(C)CCC[C@](C)([C@H]2CC[C@]3(C)[C@@H]2[C@H](O)C[C@@H]2[C@@]4(C)Cc5c([nH]c6ccccc56)C(C)(C)[C@@H]4C(=O)C[C@]23C)O1 | Non-Toxic | 56.9 | 64.3 | 71.1
29 | CC1(C)CCC[C@](C)([C@H]2CC[C@]3(C)[C@@H]2[C@H](O)C[C@@H]2[C@@]4(C)Cc5sc(-c6ccc(C(F)(F)F)cc6)nc5C(C)(C)[C@@H]4C(=O)C[C@]23C)O1 | Non-Toxic | 51.6 | 57.9 | 62.9
30 | COc1ccc(-c2nc3c(s2)C[C@]2(C)[C@H]4C[C@@H](O)[C@@H]5[C@@H]([C@@]6(C)CCCC(C)(C)O6)CC[C@@]5(C)[C@]4(C)CC(=O)[C@H]2C3(C)C)cc1 | Non-Toxic | 64.9 | 71.3 | 78.5
